In patent US20180346731A1, “Formation of Stable Pyranoanthocyanins, and Uses Thereof as Sources of Natural Color” (Ohio State Innovation Foundation, priority 2017, published 2018):

Tests used:
[1] = UV-Vis absorbance loss and first-order bleaching kinetics of pigment solutions with ascorbic acid (pH 3.0 citrate buffer, 25° C., dark); format: physicochemical; settings: for K (reaction rate, first-order) / t1/2: 25° C. dark
Procedure: The semi-purified chokeberry extract, the isolated cyanidin-3-galactoside, and the purified 5-carboxypyranocyanidin-3-galactoside were diluted in pH 3.0 citrate buffer (0.1 M adjusted with HCl) until an absorbance of 1.0 at their respective λmax was reached. Levels of AA of 250, 500, and 1000 mg/L were added using a concentrated ascorbic acid stock solution, and a control consisting of each pigment with the absence of AA was maintained. The control consisted of the pigment in the buffer in the absence of AA. An additional test was performed with the same model juice using hydrogen peroxide, a known degradation product of AA. To determine if AA bleaching was due to formation of H2O2, direct addition of it was investigated. In place of added AA, a 62.2 μL of a 0.3% peroxide solution was added to match the molar equivalency of the 500 mg/L AA level, which was 2.84 mM. All samples were brought to the same final volume with additional citrate buffer. […] Samples were stored in the dark at 25° C. in an incubator. UV-Vis spectrophotometry, colorimetry, and HPLC analyses were conducted over a 5 day period following the addition of ascorbic acid or hydrogen peroxide. UV-Vis spectral data was collected every hour for the first 8 hours, and then at 12 hr, and daily from that point on for 5 days. […] HPLC analyses were conducted on days 0, 1, 3, and 5. All treatments were run in triplicate. A SpectraMax 190 Microplate Reader (Molecular Devices, Sunnyvale, Calif., U.S.) with a 96-well plate (poly-D-lysine coated polystyrene) were used for the evaluation of absorbance from 380-700 nm, 1 nm intervals. Aliquots (200 uL) of samples were loaded into individual wells, and a blank consisted of the same citrate buffer used. Because of the rapid nature of AA-induced color loss, degradation kinetics were evaluated in terms of change in maximum absorbance at the original λmax over time. Bleaching is a first-order reaction, typical of ACN degradation, and was modeled as such in determining the reaction rate and half-life. The decrease in maximum absorbance correlated with an increase in lightness (L*) as well as the decrease in chroma (c*). The reduction in maximum absorbance did closely follow first-order kinetics for chokeberry extract and cyanidin-3-galactoside but slightly deviated for 5-carboxypyranocyanidin-3-galactoside. […] The kinetics results for each pigment and AA level can be found in Table 3 below.

[2] = HPLC monitoring of pigment peaks with ascorbic acid; format: physicochemical
Procedure: Prior to experimentation, pigments were evaluated for purity by using an analytical HPLC only different from the previously listed one by the use of different pumps (LC-20AD, Shimadzu, Md., US). Purified pigments were filtered using the Phenex RC 0.45 μm membranes. A binary system with 1 mL/min flow rate was used: solvent A: 4.5% formic acid in HPLC grade water and solvent B: HPLC grade acetonitrile. The gradient began with an isocratic flow of 6% solvent B for 17 minutes (elution of primary anthocyanins), increasing to 15% solvent B by 45 minutes (elution of primary pyranoanthocyanins), and to 40% solvent B by 50 minutes. A 10 μL injection volume was loaded onto a Phenomenex Kinetix 5 μm EVO C18 100 A. 150×4.6 mm column and Phenomenex Ultra UHPLC EVO C18 guard cartridge attached.
The semi-purified chokeberry extract, the isolated cyanidin-3-galactoside, and the purified 5-carboxypyranocyanidin-3-galactoside were diluted in pH 3.0 citrate buffer (0.1 M adjusted with HCl) until an absorbance of 1.0 at their respective λmax was reached. Levels of AA of 250, 500, and 1000 mg/L were added using a concentrated ascorbic acid stock solution, and a control consisting of each pigment with the absence of AA was maintained. The control consisted of the pigment in the buffer in the absence of AA. An additional test was performed with the same model juice using hydrogen peroxide, a known degradation product of AA. To determine if AA bleaching was due to formation of H2O2, direct addition of it was investigated. In place of added AA, a 62.2 μL of a 0.3% peroxide solution was added to match the molar equivalency of the 500 mg/L AA level, which was 2.84 mM.
All samples were brought to the same final volume with additional citrate buffer. […] Samples were stored in the dark at 25° C. in an incubator. UV-Vis spectrophotometry, colorimetry, and HPLC analyses were conducted over a 5 day period following the addition of ascorbic acid or hydrogen peroxide. UV-Vis spectral data was collected every hour for the first 8 hours, and then at 12 hr, and daily from that point on for 5 days. […] HPLC analyses were conducted on days 0, 1, 3, and 5. All treatments were run in triplicate.
Prepared solutions were monitored to determine the formation of potential degradation products or profile changes. Using the analytical HPLC system and conditions described, chromatograms were monitored with the max plot (260-700 nm), 490 nm (near λmax of 5-carboxypyranocyanidin-3-galactoside), and 520 nm (near ma of cyanidin-3-galactoside). A max plot of 470-520 nm was later added to standardize changes in the AUC for all three pigments and their degradation products.

OC[C@H]1O[C@@H](Oc2cc3c(O)cc(O)cc3[o+]c2-c2ccc(O)c(O)c2)[C@H](O)[C@@H](O)[C@H]1O [Cyanidin-3-galactoside, cyanidin-3-galactoside]
K (reaction rate, first-order) ([1]; 250 mg/L AA): 3.18E−02 | t1/2 ([1]; 250 mg/L AA): 22 h | reduction in maximum absorbance ([1]; 500 mg/L AA, 5 day period): 88% | λmax after hypsochromic change ([1]; 500 mg/L AA, after treatment): 509 nm | λmax before hypsochromic change ([1]; 500 mg/L AA, start): 511 nm | K (reaction rate, first-order) ([1]; 500 mg/L AA): 5.90E−02 | t1/2 ([1]; 500 mg/L AA): 12 h | K (reaction rate, first-order) ([1]; 1000 mg/L AA): 8.64E−02 | t1/2 ([1]; 1000 mg/L AA): 8 h | slope of reaction rate vs AA level (susceptibility to AA), relative to 5-carboxypyranocyanidin-3-galactoside ([1]; AA 0-1000 mg/L): 8.2 × | slope of reaction rate vs AA level, relative to chokeberry extract ([1]; AA 0-1000 mg/L): 3.1 × | t1/2 ([1]; Control, no AA): 546 h | K (reaction rate, first-order) ([1]; Control, no AA, absorbance at λvis-max): 1.27E−03 | time before a significant difference (p<0.05) in maximum absorbance from time 0 ([1]; all levels of AA added): 2 h | target peaks left after 1 day ([2]; 1000 mg/L AA, HPLC): 2% | reduction of pigment peak by day 1 ([2]; 1 g/L AA, HPLC AUC): 91% | reduction of pigment peak by day 5 ([2]; 1 g/L AA, HPLC AUC): > 99%
